Literature values as cited in patent US20230070788A1, “METHOD FOR DYEING KERATIN MATERIAL, COMPRISING THE USE OF AN ORGANIC C1-C6 ALKOXY SILANE AND A COPOLYMER OF (METH) ACRYLIC ACID AND MALEIC ACID (ANHYDRIDE)” (Henkel AG & Co. KGaA, priority 2019, published 2023).

Conditions: for solubility in water: 25° C.

Row | Compound | solubility in water | solubility in water (in words) (water at 25° C.)
1 | mixture of the sodium salts of mono- and disulfonic acids of 2-(2-quinolyl)-1H-indene-1,3(2H)-dione [Acid Yellow 3] | 20 mg/mL | –
2 | O=C([O-])c1c(Cl)c(Cl)c(Cl)c(Cl)c1-c1c2c(Br)cc(=O)c(Br)c-2oc2c(Br)c(O)cc(Br)c12.O=C([O-])c1c(Cl)c(Cl)c(Cl)c(Cl)c1-c1c2c(Br)cc(=O)c(Br)c-2oc2c(Br)c(O)cc(Br)c12.[Na+].[Na+] [Acid Red 92, disodium salt of 3,4,5,6-tetrachloro-2-(1,4,5,8-tetrabromo-6-hydroxy-3-oxoxanthen-9-yl)benzoic acid] | greater than 10 g/L | –
3 | Nc1cc(S(=O)(=O)[O-])cc2cc(S(=O)(=O)[O-])c(N=Nc3ccccc3)c(O)c12.[Na+].[Na+] [Acid Red 33, disodium salt of 5-amino-4-hydroxy-3-(phenylazo)-naphthalene-2,7-disulphonate] | 2.5 mg/mL | –
4 | O=C([O-])C1=NN(c2ccc(S(=O)(=O)[O-])cc2)C(=O)C1N=Nc1ccc(S(=O)(=O)[O-])cc1.[Na+].[Na+].[Na+] (centres unmarked) [Acid Yellow 23, trisodium salt of 4,5-dihydro-5-oxo-1-(4-sulfophenyl)-4-((4-sulfophenyl)azo)-1H-pyrazole-3-carboxylic acid] | – | readily soluble
5 | O=S(=O)([O-])c1ccc(N=Nc2c(O)ccc3ccccc23)cc1.[Na+] [Acid Orange 7, sodium salt of 4-[(2-hydroxy-1-naphthyl)azo]benzenesulfonate] | more than 7 g/L | –
